{"source": "patent US20200288683A1", "about": "“LOSS OF FUNCTION RODENT MODEL OF SOLUTE CARRIER 39 MEMBER 5” (Regeneron Pharmaceuticals, Inc., priority 2019, published 2020)", "key": {"[1]": {"tested_on": "LKB1/AMPK and AKT signaling pathways in human hepatoma HepG2 cells", "test": "Zinc activation of LKB1/AMPK and AKT signaling in HepG2 cells (immunoblot)", "format": "cell-based", "settings": "acute, FIG. 12A", "experimental": "(§1) FIGS. 12A-12B. […] 1° Hu Hepatocytes* (5-donor pool): HM CPP5, Thermofisher.\n(§2) Liver protein was extracted using RIPA buffer (Cell signaling technology, Cat #9806) with Halt Protease & Phosphatase Inhibitor Cocktail (ThermoFisher Scientific, Cat #78440). Five microgram protein of each sample were separated in NuPAGE 4-12% Bis-Tris protein gel (Invitrogen, Cat # WG1403BOX), and transferred to nitrocellulose membrane using Trans-Blot® Turbo™ Transfer System (BioRad). Blotting was performed using the following Cell Signaling Technology antibodies: Phospho-AMPKa (Thr172) (Cell signaling technology, Cat #2535), AMPKa (Cell signaling technology, Cat #5831), 13-Actin (Sigma, Cat #5441), Phospho-AKT (Ser473) (Cell signaling technology, Cat #4060), AKT (Cell signaling technology, Cat #9272), Phospho-LKB1 (Ser428) (Cell signaling technology, Cat #3482), LKB1 (Cell signaling technology, Cat #3050), rabbit IgG conjugated to horseradish peroxidase (HRP) (Cell signaling technology, Cat #7074) and mouse IgG conjugated to HRP (Cell signaling technology, Cat #7076). Blots were developed using SuperSignal West Femto Substrate (ThermoFisher Scientific, Cat #34095). Signals were captured using ImageQuant LAS4000 (GE Healthcare)."}, "[2]": {"tested_on": "LKB1/AMPK and AKT signaling pathways in human primary hepatocytes", "test": "Zinc activation of LKB1/AMPK and AKT signaling in human primary hepatocytes (immunoblot)", "format": "cell-based", "settings": "human primary hepatocytes (5-donor pool, HM CPP5, Thermofisher); acute; FIG. 12B", "experimental": "as §1, §2"}}}
{"smiles": "[Zn]", "note": "[Zinc]", "values": [{"measurement": "activation of LKB1/AMPK and AKT signaling pathways", "setting": "[1]", "result": "activates LKB1/AMPK and AKT signaling pathways in dose dependent manner"}, {"measurement": "activation of LKB1/AMPK and AKT signaling pathways", "setting": "[2]", "result": "activates LKB1/AMPK and AKT signaling pathways in dose dependent manner"}]}
